Measurements taken from US20240270699A1, “COMPOUNDS HAVING N-ARYLPYRIMIDIN-2-AMINE DERIVATIVES AS THERAPEUTIC AGENTS” (Lomond Therapeutics, Inc., priority 2021, published 2024).

Assays:
recombinant HPK1 protein = molecular target: T1, recombinant HPK1 protein (Homo sapiens, UniProt Q92918); test: Primary assay of HPK1 enzymatic activity inhibition (ADP-Glo luminescence); assay type: biochemical; settings: recombinant HPK1, MBP substrate, 1 hour at room temperature
T1 construct: purchased Promega V6398
T1 sequence (Q92918 1-346 limits assumed): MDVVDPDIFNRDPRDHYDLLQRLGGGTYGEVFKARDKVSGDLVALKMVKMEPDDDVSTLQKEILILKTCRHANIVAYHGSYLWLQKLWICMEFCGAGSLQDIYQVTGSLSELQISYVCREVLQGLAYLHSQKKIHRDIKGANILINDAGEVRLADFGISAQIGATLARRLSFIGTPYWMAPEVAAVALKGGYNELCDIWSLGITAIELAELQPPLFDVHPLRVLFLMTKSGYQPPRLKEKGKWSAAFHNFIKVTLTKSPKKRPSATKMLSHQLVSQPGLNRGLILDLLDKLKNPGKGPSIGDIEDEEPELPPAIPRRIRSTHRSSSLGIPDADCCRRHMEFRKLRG

Jurkat cells = test: IL-2 release Jurkat assay (anti-CD3/anti-CD28 stimulation, IL-2 ELISA); assay type: cell-based, human; settings: activation with 400 ng/mL aCD3 + 400 ng/mL aCD28, 24 hours
[1] = Table B: Jurkat, 1.5 μM of tested compounds
[2] = Table C: Jurkat, 6 μM of tested compounds, stimulated vehicle = A
[3] = Table D: Jurkat, 6 μM of tested compounds, stimulated vehicle = B

| Compound | IC50 (recombinant HPK1 protein) | IL-2, pg/mL stimulated (Jurkat cells; [1]) | IL-2, pg/mL stimulated (Jurkat cells; [2]) | IL-2, pg/mL stimulated (Jurkat cells; [3]) |
| --- | --- | --- | --- | --- |
| CS(=O)(=O)c1ccc(Nc2ncc(C(N)=O)c(N[C@H](CO)c3ccccc3)n2)cc1F [Compound 31, 2-{[3-fluoro-4-(methylsulfonyl)phenyl]amino}-4-{[(1S)-2-hydroxy-1-phenylethyl]amino}pyrimidine-5-carboxamide] | 50 to 200 nM | C (25.0 pg/mL≤IL-2<35.0 pg/mL) |  |  |
| CNC(=O)c1cnc(Nc2ccc3c(c2)CCN(C)C3=O)nc1N[C@H](CO)c1ccccc1 [Compound 43, 4-{[(1S)-2-hydroxy-1-phenylethyl]amino}-N-methyl-2-[(2-methyl-1-oxo-1,2,3,4-tetrahydroisoquinolin-6-yl)amino]pyrimidine-5-carboxamide] | 50 to 200 nM | D (35.0 pg/mL≤IL-2) |  |  |
| CCOC(=O)c1cnc(Nc2ccc3c(c2)CCNC3=O)nc1N[C@H](CO)c1ccccc1 [Compound 45, Ethyl 4-{[(1S)-2-hydroxy-1-phenylethyl]amino}-2-[(1-oxo-1,2,3,4-tetrahydroisoquinolin-6-yl)amino]pyrimidine-5-carboxylate] | < 50 nM |  | B (50 pg/mL≤IL-2<100 pg/mL) |  |
| CCOC(=O)c1cnc(Nc2ccc3c(c2)CCC(=O)N3)nc1N[C@H](CO)c1ccccc1 [Compound 46, Ethyl 4-[[(1S)-2-hydroxy-1-phenyl-ethyl]amino]-2-[(2-oxo-3,4-dihydro-1H-quinolin-6-yl)amino]pyrimidine-5-carboxylate] | < 50 nM |  |  | D (150 pg/mL≤IL-2) |
| CCOC(=O)c1cnc(Nc2ccc(C(=O)N(C)C)cc2)nc1N[C@H](CO)c1ccccc1 [Compound 47, Ethyl 2-[4-(dimethylcarbamoyl)anilino]-4-[[(1S)-2-hydroxy-1-phenyl-ethyl]amino]pyrimidine-5-carboxylate] | 50 to 200 nM |  | B (50 pg/mL≤IL-2<100 pg/mL) |  |
| CNC(=O)c1cnc(Nc2ccc(S(C)(=O)=O)c(C)c2)nc1N[C@H](CO)c1ccccc1 [Compound 65, 4-{[(1S)-2-hydroxy-1-phenylethyl]amino}-N-methyl-2-{[3-methyl-4-(methylsulfonyl)phenyl]amino}pyrimidine-5-carboxamide] | 50 to 200 nM | D (35.0 pg/mL≤IL-2) |  |  |
| CCOC(=O)c1cnc(Nc2ccc(S(C)(=O)=O)cc2)nc1N[C@H](CO)c1ccccc1 [Compound 68, Ethyl 4-{[(1S)-2-hydroxy-1-phenylethyl]amino}-2-{[4-(methylsulfonyl)-phenyl]amino}pyrimidine-5-carboxylate] | < 50 nM | D (35.0 pg/mL≤IL-2) |  |  |
| CCOC(=O)c1cnc(Nc2cccc(S(C)(=O)=O)c2)nc1N[C@H](CO)c1ccccc1 [Compound 69] | 200 to 500 nM |  | B (50 pg/mL≤IL-2<100 pg/mL) |  |
| CNC(=O)c1cnc(Nc2ccc(F)c(-c3ccccc3)c2)nc1N[C@H](CO)c1ccccc1 [Compound 82, 2-[(6-fluorobiphenyl-3-yl)amino]-4-{[(1S)-2-hydroxy-1-phenylethyl]amino}-N-methylpyrimidine-5-carboxamide] | 50 to 200 nM | C (25.0 pg/mL≤IL-2<35.0 pg/mL) |  |  |
| CNC(=O)c1cnc(Nc2ccc(S(C)(=O)=O)c(F)c2)nc1N[C@H](CO)c1ccccc1 [Compound 105, 2-{[3-fluoro-4-(methylsulfonyl)phenyl]amino}-4-{[(1S)-2-hydroxy-1-phenylethyl]amino}-N-methylpyrimidine-5-carboxamide] | 50 to 200 nM | C (25.0 pg/mL≤IL-2<35.0 pg/mL) |  |  |
| CCNC(=O)c1cnc(Nc2ccc3c(c2)CCN(C)C3=O)nc1N[C@H](CO)c1ccccc1 [Compound 119, N-ethyl-4-{[(1S)-2-hydroxy-1-phenylethyl]amino}-2-[(2-methyl-1-oxo-1,2,3,4-tetrahydroisoquinolin-6-yl)amino]pyrimidine-5-carboxamide] | < 50 nM | D (35.0 pg/mL≤IL-2) |  |  |
| CCOC(=O)c1cnc(Nc2ccc3c(c2)CCN(C)C3=O)nc1N[C@H](CO)c1ccccc1 [Compound 122, Ethyl 4-{[(1S)-2-hydroxy-1-phenylethyl]amino}-2-[(2-methyl-1-oxo-1,2,3,4-tetrahydroisoquinolin-6-yl)amino]pyrimidine-5-carboxylate] | < 50 nM | C (25.0 pg/mL≤IL-2<35.0 pg/mL) |  |  |
| CCOC(=O)c1cnc(Nc2ccc(C(=O)N(C)C)c(C)c2)nc1N[C@H](CO)c1ccccc1 [Compound 125, Ethyl 2-[4-(dimethylcarbamoyl)-3-methyl-anilino]-4-[[(1S)-2-hydroxy-1-phenyl-ethyl]amino]pyrimidine-5-carboxylate] | 200 to 500 nM |  |  | D (150 pg/mL≤IL-2) |
| CCNC(=O)c1cnc(Nc2ccc(S(C)(=O)=O)c(C)c2)nc1N[C@H](CO)c1ccccc1 [Compound 156, N-ethyl-4-{[(1S)-2-hydroxy-1-phenylethyl]amino}-2-{[3-methyl-4-(methylsulfonyl)phenyl]amino}pyrimidine-5-carboxamide] | 50 to 200 nM | C (25.0 pg/mL≤IL-2<35.0 pg/mL) |  |  |
| Cc1cc(Nc2ncc(C(=O)N(C)C)c(N[C@H](CO)c3ccccc3)n2)ccc1S(C)(=O)=O [Compound 157, 4-[[(1S)-2-hydroxy-1-phenyl-ethyl]amino]-N,N-dimethyl-2-(3-methyl-4-methylsulfonyl-anilino)pyrimidine-5-carboxamide] | 200 to 500 nM |  | C (100 pg/mL≤IL-2<150 pg/mL) |  |
| CCOC(=O)c1cnc(Nc2ccc(S(C)(=O)=O)c(C)c2)nc1N[C@H](CO)c1ccccc1 [Compound 166, Ethyl 4-{[(1S)-2-hydroxy-1-phenylethyl]amino}-2-{[3-methyl-4-(methylsulfonyl)phenyl]amino}pyrimidine-5-carboxylate] | < 50 nM | C (25.0 pg/mL≤IL-2<35.0 pg/mL) |  |  |
| CCOC(=O)c1cnc(Nc2ccc(S(C)(=O)=O)cc2C)nc1N[C@H](CO)c1ccccc1 [Compound 167, Ethyl 4-{[(1S)-2-hydroxy-1-phenylethyl]amino}-2-{[2-methyl-4-(methylsulfonyl)phenyl]amino}pyrimidine-5-carboxylate] | 200 to 500 nM |  | B (50 pg/mL≤IL-2<100 pg/mL) |  |
| CCOC(=O)c1cnc(Nc2ccc(S(=O)(=O)CC)cc2)nc1N[C@H](CO)c1ccccc1 [Compound 168, Ethyl 2-{[4-(ethylsulfonyl)phenyl]amino}-4-{[(1S)-2-hydroxy-1-phenylethyl]amino}pyrimidine-5-carboxylate] | 50 to 200 nM |  | A (IL-2<50 pg/mL) |  |
| CCNC(=O)c1cnc(Nc2ccc(F)c(-c3ccccc3)c2)nc1N[C@H](CO)c1ccccc1 [Compound 189, N-ethyl-2-[(6-fluorobiphenyl-3-yl)amino]-4-{[(1S)-2-hydroxy-1-phenylethyl]amino}pyrimidine-5-carboxamide] | 200 to 500 nM | C (25.0 pg/mL≤IL-2<35.0 pg/mL) |  |  |
| CCOC(=O)c1cnc(Nc2ccc(F)c(-c3ccccc3)c2)nc1N[C@H](CO)c1ccccc1 [Compound 195, Ethyl 2-[(6-fluorobiphenyl-3-yl)amino]-4-{[(1S)-2-hydroxy-1-phenylethyl]amino}pyrimidine-5-carboxylate] | 200 to 500 nM | C (25.0 pg/mL≤IL-2<35.0 pg/mL) |  |  |
| CCOC(=O)c1cnc(Nc2ccc(S(C)(=O)=O)c(F)c2)nc1N[C@H](CO)c1ccccc1 [Compound 210, Ethyl 2-{[3-fluoro-4-(methylsulfonyl)phenyl]amino}-4-{[(1S)-2-hydroxy-1-phenylethyl]amino}pyrimidine-5-carboxylate] | 200 to 500 nM | D (35.0 pg/mL≤IL-2) |  |  |
| CCOC(=O)c1cnc(Nc2ccc(S(C)(=O)=O)cc2F)nc1N[C@H](CO)c1ccccc1 [Compound 211, Ethyl 2-{[2-fluoro-4-(methylsulfonyl)phenyl]amino}-4-{[(1S)-2-hydroxy-1-phenylethyl]amino}pyrimidine-5-carboxylate] | 50 to 200 nM |  | B (50 pg/mL≤IL-2<100 pg/mL) |  |
| CC(C)NC(=O)c1cnc(Nc2ccc3c(c2)CCN(C)C3=O)nc1N[C@H](CO)c1ccccc1 [Compound 212, 4-{[(1S)-2-hydroxy-1-phenylethyl]amino}-2-[(2-methyl-1-oxo-1,2,3,4-tetrahydroisoquinolin-6-yl)amino]-N-(propan-2-yl)pyrimidine-5-carboxamide] | 50 to 200 nM | C (25.0 pg/mL≤IL-2<35.0 pg/mL) |  |  |
| CCOC(=O)c1cnc(Nc2ccc3c(c2)CCN(CC)C3=O)nc1N[C@H](CO)c1ccccc1 [Compound 218, Ethyl 2-[(2-ethyl-1-oxo-3,4-dihydroisoquinolin-6-yl)amino]-4-[[(1S)-2-hydroxy-1-phenyl-ethyl]amino]pyrimidine-5-carboxylate] | 50 to 200 nM |  | D (150 pg/mL≤IL-2) |  |
| CCOC(=O)c1cnc(Nc2ccc(C(=O)N(C)C)c(Cl)c2)nc1N[C@H](CO)c1ccccc1 [Compound 266, Ethyl 2-[3-chloro-4-(dimethylcarbamoyl)anilino]-4-[[(1S)-2-hydroxy-1-phenyl-ethyl]amino]pyrimidine-5-carboxylate] | 200 to 500 nM |  | C (100 pg/mL≤IL-2<150 pg/mL) |  |
| Cc1cc(Nc2ncc(C(=O)NC(C)C)c(N[C@H](CO)c3ccccc3)n2)ccc1S(C)(=O)=O [Compound 267, 4-{[(1S)-2-hydroxy-1-phenylethyl]amino}-2-{[3-methyl-4-(methylsulfonyl)phenyl]amino}-N-(propan-2-yl)pyrimidine-5-carboxamide] | 50 to 200 nM | D (35.0 pg/mL≤IL-2) |  |  |
